Data: patent US6337330B1, “Antitussives” (priority 1997, dated 2002)

Tests used:
[1] = test system: Mouse Model of Capsaicin-induced Cough; experiment: Antitussive action using mouse model of capsaicin-induced cough; format: in vivo
Description: Evaluation of Antitussive Action Using Mouse Model of Capsaicin-induced Cough
Capsaicin (30 μM) was sent as aerosol to a cap attached to the head of a mouse by using an ultrasonic nebulizer and an artificial respiratory apparatus through a silicon tube, and inhaled by the mouse to induce coughs. For inhalation of capsaicin, capsaicin was sent by using the artificial respiratory apparatus at a rate of 60 times per minute in a dose of 5 ml at a time.
15 minutes before administration of a medicine, capsaicin was inhaled for 3 minutes, and it was confirmed that coughs were induced during this time. 15 minutes, 60 minutes and 120 minutes after administration of a medicine, capsaicin was inhaled for 3 minutes to measure the number of coughs induced during this time. The antitussive effect was evaluated by determining the inhibition rate shown by the number of coughs after administration of a medicine based on the number of coughs before administration of a medicine. Capsaicin was dissolved in 10% ethanol and a 10% Tween 80 solution, and diluted with physiological saline. The medicine was dissolved in physiological saline, and intraperitoneally administered.

[2] = test system: Rat Model of Capsaicin-induced Cough; experiment: Antitussive action using rat model of capsaicin-induced cough; format: in vivo, SD male rats; conditions: 30 minutes after administration, capsaicin 60 μM, versus distilled water group
Source text: Evaluation of Antitussive Action Using Rat Model of Capsaicin-induced Cough
Rat groups each consisting of 5 SD male rats (Charles River Japan) of 7 weeks old were used. The rats not anesthetized were placed in a container comprising two acrylic cylinders including a head and a body. A rubber collar and plastic collar were put on each of the rats, and the head and body of the container were independently provided.
Capsaicin used as a medicine for inducing coughs was aerosolized by an ultrasonic nebulizer, and inhaled by the rats from the front side of the container by using an artificial respiration apparatus. The concentration of capsaicin was 60 μM. In this inhalation, the flow rate of air was 10 ml×70 times/min (700 ml/min). Changes in internal pressure of the closed body box were recorded on a recorder through a differential transducer. Coughs were measured by the changes in internal the body box and visually observing the motions of the rats.
A medicine was diluted with distilled water, and 1 to 10 mg/5 ml/kg was subcutaneously administered.
Each of the rats was fixed by a holder, and 60 minutes after, capsaicin was inhaled for 3 minutes to count the number of coughs. The rats having at least 9 coughs were subjected to examination of a medicine. The rats were administered subcutaneously with a medicine, and fixed by a holder, and 30 minutes after, capsaicin was inhaled for 3 minutes to count the number of coughs. The antitussive action of each of compounds was represented by the inhibition rate shown by the number of coughs of the group in which a medicine was administered based on the number of coughs of the group in which distilled water was administered.

COc1cccc([C@@]23CCN(C)C[C@@H]2Cc2cc4ccccc4nc2C3)c1
melting point: 154 to 155.5 °C

CN1CC[C@@]2(c3cccc(O)c3)Cc3nc4ccccc4cc3CC2C1 (stereo in doubt) [Compound 2, (4aR, 12aR)-2-methyl-4a-(3-hydroxyphenyl)-1,2,3,4,4a,5,12,12a-octahydro-quinolino[2,3-g]isoquinoline]
time of peak antitussive effect after administration ([1]; 10 μg/kg intraperitoneal): 15 min | antitussive effect 120 minutes after administration ([1]; 10 μg/kg intraperitoneal, 120 minutes after administration): recovered to the same level as a group in which physiological saline was administered | effect of suppressing coughs (inhibition rate of number of coughs) ([1]; 10 μg/kg intraperitoneal, versus physiological saline group, p<0.05 (U test)): significant effect of suppressing coughs | ED50 ([1]; ip, intraperitoneal, fifteen minutes after administration, capsaicin 30 μM inhalation, calculated from FIG. 2, read-out: ED50 value of the antitussive effect): 4.2 µg/kg | Inhibition rate (%) of number of coughs ([2]; 1 mg/kg subcutaneous): 72.5%

Oc1cccc([C@@]23CCNCC2Cc2cc4ccccc4nc2C3)c1 (stereo in doubt) [Compound 4, (4aR, 12aR)-4a-(3-hydroxyphenyl)-1,2,3,4,4a,5,12,12a-octahydroquinolino[2,3-g]isoquinoline]
Inhibition rate (%) of number of coughs ([2]; 10 mg/kg subcutaneous): 34.0%

Oc1cccc([C@@]23CCN(CC4CC4)CC2Cc2cc4ccccc4nc2C3)c1 (stereo in doubt) [Compound 6, (4aR, 12aR)-2-cyclopropylmethyl-4a-(3-hydroxyphenyl)-1,2,3,4,4a,5,12,12a-octahydroquinolino[2,3-g]isoquinoline]
Inhibition rate (%) of number of coughs ([2]; 1 mg/kg subcutaneous): 30.9%

Oc1cccc([C@@]23CCN(CCc4ccccc4)C[C@H]2Cc2cc4ccccc4nc2C3)c1 [Compound 7, (4aR, 12aR)-2-(2-phenethyl)-4a-(3-hydroxyphenyl)-1,2,3,4,4a,5,12,12a-octahydroquinolino[2,3-g]isoquinoline]
Inhibition rate (%) of number of coughs ([2]; 1 mg/kg subcutaneous): 44.3%
